# pIC50: −log10 of the molar value.
# Columns and labels:
# Format in all cases: biochemical
# KDM7 (PHF8) = target: T1, KDM7 (PHF8) (Homo sapiens, UniProt Q9UPP1); assay: Histone lysine demethylase AlphaLISA assay, KDM7; conditions: read-out: PHF8 HDME Inhibition IC50
# T1 construct: KDM7 (PHF8); BRIC; 1-1322; Bac
# Procedure: (§1) Assays are performed analogously to the protocol described by PerkinElmer (Roy et al. PerkinElmer Technical Note: AlphaLISA #12, April 2011)
# (§2) Enzymes are dissolved in enzyme buffer and incubated for 10 min before being added to 3% DMSO solutions of compounds in enzyme buffer. Incubated for another 10 minutes, before substrate solution is added and the reaction mixture is incubated at room temperature. 10 μL acceptor beads, suspended in Epigenetic Buffer (Perkin Elmer AL008) from stock, are added and the suspension is incubated in the dark at room temperature, before a suspension of streptavidin donor beads (Perkin Elmer 6760002) in Epigenetic Buffer is added. After incubation at room temperature in the dark the plates are read. […]
# BK9M2: Biotin-ARTKQTAR(KMe2)STGGKAPRKQ-NH2 (AnaSpec 64359)
# BK9M1: Biotin-ARTKQTAR(KMe1)STGGKAPRKQ-NH2 (AnaSpec 64358) […]
# (§3) Substrate Solution: Substrate, 25 μM L-Asc, and 10 μM α-KG in Buffer A.
# KDM5C (JARID1C) = target: T2, KDM5C (JARID1C) (Homo sapiens, UniProt P41229); assay: Histone lysine demethylase AlphaLISA assay, KDM5C; conditions: read-out: KDM5C HDME Inhibition IC50
# T2 construct: 2-1560; purchased BPS; host or cells: Bac (baculovirus system)
# Procedure: as §1, §2
# H3K4M3B: H-ART(Kme3)QTARKSTGGKAPRKQLA-NH-Biotin (Caslo, Denmark) […]
# as §3
# KDM5B (PLU-1) = target: T3, KDM5B (PLU-1) (Homo sapiens, UniProt Q9UGL1); assay: Histone lysine demethylase AlphaLISA assay, KDM5B; conditions: read-out: KDM5B HDME Inhibition IC50
# T3 sequence (Q9UGL1 1-809): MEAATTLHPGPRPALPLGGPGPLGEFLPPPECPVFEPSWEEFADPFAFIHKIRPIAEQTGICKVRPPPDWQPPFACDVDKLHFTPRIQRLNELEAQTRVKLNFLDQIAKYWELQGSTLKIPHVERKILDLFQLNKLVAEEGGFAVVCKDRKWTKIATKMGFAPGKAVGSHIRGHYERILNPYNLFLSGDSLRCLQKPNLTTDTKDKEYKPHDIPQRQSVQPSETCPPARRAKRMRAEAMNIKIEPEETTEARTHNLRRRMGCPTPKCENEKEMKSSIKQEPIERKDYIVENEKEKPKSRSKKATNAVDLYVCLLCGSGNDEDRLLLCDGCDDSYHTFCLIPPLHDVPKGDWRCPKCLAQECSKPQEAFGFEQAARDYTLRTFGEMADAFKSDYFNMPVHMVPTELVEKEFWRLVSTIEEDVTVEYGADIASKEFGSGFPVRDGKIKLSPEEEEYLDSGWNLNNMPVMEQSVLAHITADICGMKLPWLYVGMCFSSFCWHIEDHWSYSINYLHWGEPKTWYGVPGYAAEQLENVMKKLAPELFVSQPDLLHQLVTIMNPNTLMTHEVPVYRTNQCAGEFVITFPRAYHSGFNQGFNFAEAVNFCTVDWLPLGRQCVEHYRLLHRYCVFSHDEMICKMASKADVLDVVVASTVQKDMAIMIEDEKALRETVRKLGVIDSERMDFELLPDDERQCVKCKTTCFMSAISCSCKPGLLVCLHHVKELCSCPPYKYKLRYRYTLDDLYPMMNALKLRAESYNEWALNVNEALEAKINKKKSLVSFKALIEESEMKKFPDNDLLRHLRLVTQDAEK
# Outline: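 Biotinylated methylated H3 peptides (K9, K4, K27 or K36 marks) served as substrate, with 25 μM L-Asc and 10 μM α-KG. Enzymes were preincubated 10 min, then exposed to compounds (3% DMSO solutions) 10 min; product detected by AlphaLISA acceptor and streptavidin donor beads at room temperature in dark.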
# KDM3A (JMJD1A) = target: T4, KDM3A (JMJD1A) (Homo sapiens, UniProt Q9Y4C1); assay: Histone lysine demethylase AlphaLISA assay, KDM3A; conditions: read-out: KDM3 A HDME Inhibition IC50
# T4 construct: 2-end; purchased BPS Bioscience, US; host or cells: Bac (baculovirus system)
# T4 sequence (Q9Y4C1 2-1321 limits assumed): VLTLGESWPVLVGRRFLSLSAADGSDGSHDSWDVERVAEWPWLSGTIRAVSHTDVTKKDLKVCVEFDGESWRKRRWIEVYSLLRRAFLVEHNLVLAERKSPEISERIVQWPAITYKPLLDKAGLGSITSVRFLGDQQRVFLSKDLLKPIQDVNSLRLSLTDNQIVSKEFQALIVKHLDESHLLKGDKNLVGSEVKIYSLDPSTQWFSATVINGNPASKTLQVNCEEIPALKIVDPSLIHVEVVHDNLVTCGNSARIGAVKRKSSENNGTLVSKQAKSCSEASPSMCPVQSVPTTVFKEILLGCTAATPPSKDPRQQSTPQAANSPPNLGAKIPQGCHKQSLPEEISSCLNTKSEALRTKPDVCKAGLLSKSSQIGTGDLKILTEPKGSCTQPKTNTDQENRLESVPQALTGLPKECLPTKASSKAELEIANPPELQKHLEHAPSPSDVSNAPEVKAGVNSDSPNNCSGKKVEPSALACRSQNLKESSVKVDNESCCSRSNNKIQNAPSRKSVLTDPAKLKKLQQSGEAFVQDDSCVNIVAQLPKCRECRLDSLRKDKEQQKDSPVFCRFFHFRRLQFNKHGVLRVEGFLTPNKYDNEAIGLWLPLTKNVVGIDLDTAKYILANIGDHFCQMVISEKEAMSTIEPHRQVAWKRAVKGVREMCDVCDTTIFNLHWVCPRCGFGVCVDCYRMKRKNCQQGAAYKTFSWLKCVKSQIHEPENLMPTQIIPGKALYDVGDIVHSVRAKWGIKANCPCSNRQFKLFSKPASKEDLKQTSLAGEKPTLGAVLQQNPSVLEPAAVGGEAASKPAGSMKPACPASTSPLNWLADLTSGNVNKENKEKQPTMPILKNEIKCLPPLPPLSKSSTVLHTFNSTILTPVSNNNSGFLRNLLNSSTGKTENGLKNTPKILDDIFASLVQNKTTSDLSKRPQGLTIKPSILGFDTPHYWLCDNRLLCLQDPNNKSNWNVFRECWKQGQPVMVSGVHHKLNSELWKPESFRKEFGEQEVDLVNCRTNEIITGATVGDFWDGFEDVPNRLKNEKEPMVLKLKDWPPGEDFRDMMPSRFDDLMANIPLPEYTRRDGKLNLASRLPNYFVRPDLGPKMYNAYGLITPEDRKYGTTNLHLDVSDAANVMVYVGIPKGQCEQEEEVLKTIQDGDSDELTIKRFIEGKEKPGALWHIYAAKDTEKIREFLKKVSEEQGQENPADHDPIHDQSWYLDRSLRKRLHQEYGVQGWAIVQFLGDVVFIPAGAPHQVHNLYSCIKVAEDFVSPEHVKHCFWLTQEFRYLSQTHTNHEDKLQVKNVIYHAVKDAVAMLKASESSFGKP
# Procedure: as §1, §2
# BK9M2: Biotin-ARTKQTAR(KMe2)STGGKAPRKQ-NH2 (AnaSpec 64359) […]
# as §3
# T2 sequence (P41229 2-1560): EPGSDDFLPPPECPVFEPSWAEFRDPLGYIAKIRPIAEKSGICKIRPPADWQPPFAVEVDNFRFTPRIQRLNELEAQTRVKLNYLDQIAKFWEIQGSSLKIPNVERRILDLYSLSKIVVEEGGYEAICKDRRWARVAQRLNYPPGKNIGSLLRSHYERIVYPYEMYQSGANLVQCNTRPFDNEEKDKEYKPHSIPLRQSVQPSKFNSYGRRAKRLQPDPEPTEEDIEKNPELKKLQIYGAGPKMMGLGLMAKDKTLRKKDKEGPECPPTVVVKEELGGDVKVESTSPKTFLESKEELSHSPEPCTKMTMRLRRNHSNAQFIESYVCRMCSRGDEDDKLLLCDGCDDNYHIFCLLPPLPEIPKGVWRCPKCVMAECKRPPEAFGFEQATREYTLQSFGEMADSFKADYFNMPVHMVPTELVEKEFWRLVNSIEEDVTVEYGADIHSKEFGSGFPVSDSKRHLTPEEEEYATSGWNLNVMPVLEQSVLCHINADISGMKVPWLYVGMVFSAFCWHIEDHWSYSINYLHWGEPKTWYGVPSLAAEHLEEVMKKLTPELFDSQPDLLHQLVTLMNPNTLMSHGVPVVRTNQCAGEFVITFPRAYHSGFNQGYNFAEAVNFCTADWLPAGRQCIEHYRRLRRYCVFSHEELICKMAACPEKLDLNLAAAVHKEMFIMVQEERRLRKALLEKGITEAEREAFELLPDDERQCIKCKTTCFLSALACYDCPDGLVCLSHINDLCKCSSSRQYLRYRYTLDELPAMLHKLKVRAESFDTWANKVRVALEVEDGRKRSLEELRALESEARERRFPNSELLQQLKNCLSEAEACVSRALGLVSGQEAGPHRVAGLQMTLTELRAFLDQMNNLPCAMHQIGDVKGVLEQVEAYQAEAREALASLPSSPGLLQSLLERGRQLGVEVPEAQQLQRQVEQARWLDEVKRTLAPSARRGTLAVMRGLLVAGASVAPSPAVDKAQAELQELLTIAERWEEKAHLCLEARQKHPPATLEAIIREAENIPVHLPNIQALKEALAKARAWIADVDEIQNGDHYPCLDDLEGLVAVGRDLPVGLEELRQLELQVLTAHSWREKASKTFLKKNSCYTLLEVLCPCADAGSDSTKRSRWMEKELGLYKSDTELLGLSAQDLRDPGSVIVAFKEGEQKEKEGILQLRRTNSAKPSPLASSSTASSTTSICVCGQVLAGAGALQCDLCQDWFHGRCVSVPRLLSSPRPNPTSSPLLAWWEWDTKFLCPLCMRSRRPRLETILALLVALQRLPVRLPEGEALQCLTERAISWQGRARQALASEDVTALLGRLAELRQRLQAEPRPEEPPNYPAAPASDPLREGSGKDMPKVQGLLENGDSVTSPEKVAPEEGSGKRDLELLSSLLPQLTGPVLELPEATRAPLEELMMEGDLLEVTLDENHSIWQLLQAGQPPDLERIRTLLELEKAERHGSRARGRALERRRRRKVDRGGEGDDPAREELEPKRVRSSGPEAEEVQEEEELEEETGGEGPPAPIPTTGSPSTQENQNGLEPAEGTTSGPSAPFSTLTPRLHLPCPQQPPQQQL
# T1 sequence (Q9UPP1 37-440 limits assumed): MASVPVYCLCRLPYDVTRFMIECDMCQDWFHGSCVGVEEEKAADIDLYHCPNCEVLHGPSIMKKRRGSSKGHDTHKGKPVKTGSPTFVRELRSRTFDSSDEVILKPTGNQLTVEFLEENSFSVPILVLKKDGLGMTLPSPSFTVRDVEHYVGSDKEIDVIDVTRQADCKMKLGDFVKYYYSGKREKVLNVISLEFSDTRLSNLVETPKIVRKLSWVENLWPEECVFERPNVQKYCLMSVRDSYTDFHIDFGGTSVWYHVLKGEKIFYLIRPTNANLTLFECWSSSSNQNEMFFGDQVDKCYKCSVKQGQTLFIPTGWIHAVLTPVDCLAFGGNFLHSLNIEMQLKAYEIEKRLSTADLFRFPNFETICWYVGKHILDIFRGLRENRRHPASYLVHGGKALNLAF
Compound,pIC50 (KDM7 (PHF8)),pIC50 (KDM5C (JARID1C)),pIC50 (KDM5B (PLU-1)),pIC50 (KDM3A (JMJD1A))
"CN(C)CCCNCc1cc(CN)ccn1 [Compound 3, [2-({[3-(dimethylamino)propyl]-amino}methyl)pyridin-4-yl]methanamine]",5.60 to 6.60,> 6.60,5.60 to 6.60,–
"CCN(CC)CCCCNCc1cc(CN)ccn1 [Compound 5, [2-({[4-(diethylamino)butyl]-amino}methyl)pyridin-4-yl]methanamine]",< 5.60,–,< 5.60,< 5.60
"CN(C)CCCCNCc1cc(CNC2CC2)ccn1 [Compound 10, N-{[2-({[4-(dimethylamino)butyl]-amino}methyl)pyridin-4-yl]methyl}-cyclopropanamine]",< 5.60,–,< 5.60,< 5.60
"CN(C)C(=O)CNCc1cc(CNCC#N)ccn1 [Compound 13, 2-{[(4-{[(cyanomethyl)amino]-methyl}pyridin-2-yl)methyl]amino}-N,N-dimethylacetamide]",< 5.60,< 5.60,5.60 to 6.60,–
"CN(CCCNCc1cc(/C=N/C2CC2)ccn1)Cc1ccccc1 [Compound 41, N-({2-[({3-[benzyl(methyl)amino]-propyl}amino)methyl]-pyridin-4-yl}methylidene)-cyclopropanamine]",< 5.60,–,> 6.60,–
"CCN(CCN(C)C)C(=O)CNCc1cc(C2OCC(Cc3ccccc3)CN2C(=O)C(F)(F)F)ccn1 (stereo not shown) [Compound 90, 2-[({4-[5-benzyl-3-(trifluoroacetyl)-1,3-oxazinan-2-yl]pyridin-2-yl}methyl)amino]-N-[2-(dimethylamino)-ethyl]-N-ethylacetamide]",< 5.60,–,> 6.60,–
"CCN(CCN(C)C)C(=O)CNCc1cc(C2OCC3(CC3)CN2C(=O)C(F)(F)F)ccn1 (stereo not shown) [Compound 91, N-[2--(dimethylamino)-ethyl]-N-ethyl-2-[({4-[7-(trifluoroacetyl)-5-oxa-7-azaspiro[2.5]-octan-6-yl]pyridin-2-yl}methyl)amino]-acetamide]",< 5.60,–,> 6.60,–
"CCN(CC(C)(C)N(C)C)C(=O)CNCc1cc(C=O)ccn1 [Compound 118, N-[2-(dimethylamino)-2-methylpropyl]-N-ethyl-2-{[(4-formylpyridin-2-yl)methyl]amino}-acetamide]",5.60 to 6.60,–,> 6.60,–

# Results, then the compound that gave them:
pIC50 (KDM7 (PHF8)),pIC50 (KDM5C (JARID1C)),pIC50 (KDM5B (PLU-1)),pIC50 (KDM3A (JMJD1A)),Compound
< 5.60,–,5.60 to 6.60,< 5.60,"NCc1ccnc(CNCCCCN2CCC2)c1 [Compound 7, [2-({[4-(azetidin-1-yl)butyl]amino}methyl)-pyridin-4-yl]-methanamine]"
< 5.60,–,5.60 to 6.60,< 5.60,"CC1CCCCN1CCCNCc1cc(CNC2CC2)ccn1 (stereo not shown) [Compound 11, N-{[2-({[3-(2-methylpiperidin-1-yl)propyl]amino}methyl)-pyridin-4-yl]methyl}-cyclopropanamine]"
< 5.60,> 6.60,> 6.60,–,CN(C)C(=O)CNCc1cc(/C=N\C2CC2)ccn1 [Compound 33]
–,> 6.60,> 6.60,< 5.60,"CN(CCCn1cccn1)C(=O)CNCc1cc(/C=N/C2CC2)ccn1 [Compound 52, 2-[({4-[N-cyclopropyl-carboximidoyl]-pyridin-2-yl}methyl)amino]-N-methyl-N-[3-(1H-pyrazol-1-yl)propyl]acetamide]"
< 5.60,> 6.60,> 6.60,–,"CCN(CCN(C)C)C(=O)CNCc1cc(/C=N/CCC2CCCCC2)ccn1 [Compound 63, 2-[({4-[[(2-cydohexylethyl)-imino]methyl]pyridin-2-yl}methyl)amino]-N-[2-(dimethylamino)-ethyl]-N-ethylacetamide]"
< 5.60,–,5.60 to 6.60,–,"CN(Cc1ccccc1F)C(=O)CNCc1cc(/C=N/CCO)ccn1 [Compound 92, N-[(2-fluorophenyl)methyl]-2-[({4-[[(2-hydroxyethyl)imino]-methyl]pyridin-2-yl}methyl)amino]-N-methylacetamide]"
< 5.60,–,< 5.60,–,"OCC/N=C/c1ccnc(CNCCc2ccccc2OCc2ccccc2)c1 [Compound 93, 2-[({2-[({2-[2-(benzyloxy)phenyl]-ethyl}amino)methyl]-pyridin-4-yl}methylidene)-amino]ethan-1-ol]"
5.60 to 6.60,–,> 6.60,–,"CCN(CCC#N)C(=O)CNCc1cc(/C=N/CCO)ccn1 [Compound 94, N-(2-cyanoethyl)-N-ethyl-2-[({4-[[(2-hydroxyethyl)imino]-methyl]pyridin-2-yl}methyl)amino]-acetamide]"
–,–,< 5.60,–,"CC(C)C[C@H](NCc1cc(/C=N/CCO)ccn1)C(=O)N1CCCCC1 [Compound 95, (2S)-2-[({4-[[(2-hydroxyethyl)imino]-methyl]pyridin-2-yl}methyl)amino]-4-methyl-1-(piperidin-1-yl)pentan-1-one]"
< 5.60,–,5.60 to 6.60,< 5.60,"CN(C)CC1CCC(CNCc2cc(C=O)ccn2)CC1 (stereo not shown) [Compound 97, 2-{[({4-[(dimethylamino)-methyl]cyclohexyl}-methyl)amino]-methyl}pyridine-4-carbaldehyde]"
–,–,5.60 to 6.60,< 5.60,"CCN(CC)C(=O)CNCc1cc(C=O)ccn1 [Compound 105, N,N-diethyl-2-{[(4-formylpyridin-2-yl)methyl]amino}-acetamide]"
5.60 to 6.60,–,< 5.60,–,"CN(CC(=O)N1CCCCC1)Cc1cc(C=O)ccn1 [Compound 120, 2-({methyl[2-oxo-2-(piperidin-1-yl)ethyl]amino}-methyl)pyridine-4-carbaldehyde]"

# Reference: patent US9650339B2, “Inhibitors of histone demethylases” (Gilead Sciences, Inc., priority 2013, dated 2017)
